How the values were obtained:
Lactobacterium = test: Stimulation of growth: enumeration of lactobacilli in vitro in human fecal homogenate culture; assay type: cell-based, Lactobacillus spp; conditions: 1% test substance or mixture, human fecal homogenate in diluted WC broth, incubated up to 24 hours, control 2.8 × 10^5
Description: (§1) The stimulation of growth of micro-organisms has been studied by enumerating bifidobacterium and lactobacilli in vitro in the presence of various test substances:
(§2) Aliquots (1 mL) of human fecal homogenates (10 g per 100 mL diluent) were added to diluted WC broth (diluted 50:50 with 0.05M phosphate buffer) to which were added the test mixtures and a lactobacillus or bifidobacterium strain. For each of the combinations, parallel tubes were prepared with one set being inoculated with Bifidobacterium spp or Lactobacillus spp. All mixtures were then incubated for up to 24 hours and bacterial numbers determined. The results are presented in Tables 1 and 2 (amount of extract calculated on active content): […]

Bifidobacterium = test: Stimulation of growth: enumeration of Bifidobacterium in vitro in human fecal homogenate culture; assay type: cell-based, Bifidobacterium spp; conditions: 1% test substance or mixture, human fecal homogenate in diluted WC broth, incubated up to 24 hours, control 1.0 × 10^6
Description: as §1, §2

Row | Compound | Bacterial numbers CFU/ml (Lactobacterium) [× × 10^6 CFU/ml] | Bacterial numbers CFU/ml (Bifidobacterium) [× × 10^7 CFU/ml]
1 | OC[C@H]1O[C@@H](O[C@H]2[C@H](O)[C@@H](O)[C@@H](O[C@]3(CO)O[C@H](CO)[C@@H](O)[C@@H]3O)O[C@@H]2CO)[C@H](O)[C@@H](O)[C@H]1O [C2, Lactosucrose] | 1.1 | 1.1
2 | Lactolin [C3] | 1.5 | 1.6

Source: patent US20080268024A1, “Compositions for Oral and/or Topical Administration” (priority 2004, published 2008)
